The text below walks through data of patent US20250230193A1, “CYCLIC COMPOUND HAVING SELECTIVE KRAS INHIBITORY EFFECT ON HRAS AND NRAS” (CHUGAI SEIYAKU KABUSHIKI KAISHA, priority 2022, published 2025).

Structures are written as SMILES. Where a SMILES comes first, the peptide text is derived from it. Bridges are numbered along the chain shown (N, C = ends). [ ]: non-standard residue; d: D form. The star is where a group is joined. hPhe(3-Cl-4-CF3) = N[C@@H](CCc1ccc(C(F)(F)F)c(Cl)c1)C(=O)O; NPrPhe(4-CF3) = CCCN[C@@H](Cc1ccc(C(F)(F)F)cc1)C(=O)O; NMeGly(cPent) = CN[C@H](C(=O)O)C1CCCC1; Pro(4,4-F2) = O=C(O)[C@@H]1CC(F)(F)CN1; Hyp = O=C(O)[C@@H]1C[C@@H](O)CN1; NMeL = CN[C@@H](CC(C)C)C(=O)O; Morpholide = C1CN(*)CCO1; Ac5c = NC1(C(=O)O)CCCC1; Aze = O=C(O)[C@@H]1CCN1; Ac4c = NC1(C(=O)O)CCC1; Sar = CNCC(=O)O

Assay [1] addresses GDP-bound NRAS wild-type protein (Homo sapiens, UniProt P01111). Description: Binding to NRAS by surface plasmon resonance (SPR), Single Cycle Kinetics. Particulars: KD ratio NRAS/KRAS, SPR. A general note: In SPR one partner is held on a chip, and binding of the other changes the refractive index at the surface.
In assay [2] the target is GDP-bound HRAS wild-type protein (Homo sapiens, UniProt P01112). The experiment in a line: Binding to HRAS by surface plasmon resonance (SPR), Single Cycle Kinetics. The note with it: KD ratio HRAS/KRAS, SPR.
Chain of GDP-bound HRAS wild-type protein (P01112 whole entry): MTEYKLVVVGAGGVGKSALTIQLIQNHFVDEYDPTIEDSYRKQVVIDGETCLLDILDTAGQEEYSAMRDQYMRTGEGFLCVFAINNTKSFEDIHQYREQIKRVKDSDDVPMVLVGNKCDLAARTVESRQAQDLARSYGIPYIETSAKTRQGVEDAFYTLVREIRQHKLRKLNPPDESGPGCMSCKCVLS

Chain of GDP-bound NRAS wild-type protein (P01111 whole entry): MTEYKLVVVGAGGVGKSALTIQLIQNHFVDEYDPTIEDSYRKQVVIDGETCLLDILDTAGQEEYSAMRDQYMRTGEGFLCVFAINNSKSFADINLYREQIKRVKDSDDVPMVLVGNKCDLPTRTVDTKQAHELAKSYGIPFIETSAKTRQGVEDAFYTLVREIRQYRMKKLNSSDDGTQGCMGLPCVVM

Turning to `CCCN1C(=O)[C@@H]2CCN2C(=O)CN(C)C(=O)[C@H]([C@@H](C)CC)NC(=O)[C@H](CC(C)C)N(C)C(=O)C[C@@H](C(=O)N2CCOCC2)NC(=O)[C@H](C2CCCC2)N(C)C(=O)C2(CCCC2)NC(=O)[C@@H]2CC(F)(F)CN2C(=O)[C@H](CCc2ccc(C(F)(F)F)c(Cl)c2)NC(=O)CN(C)C(=O)[C@@H]1Cc1ccc(C(F)(F)F)cc1` [PP0351] ([NMeL]I[Sar][Aze][NPrPhe(4-CF3)][Sar][hPhe(3-Cl-4-CF3)][Pro(4,4-F2)][Ac5c][NMeGly(cPent)]D-Morpholide; lactam N-11), in assay [1], the “NRAS/KRAS (ratio of KD for GDP-bound NRAS wild-type to KD for KRAS)” value is “C (A compound having a KD ratio of 0.1 or more and less than 3 is denoted as C)”. The “HRAS/KRAS (ratio of KD for GDP-bound HRAS wild-type to KD for KRAS)” value in assay [2] is “B (a compound having 3 or more and less than 10 is denoted as B)”.
As to `CCCN1C(=O)[C@@H]2CCN2C(=O)CN(C)C(=O)[C@H]([C@@H](C)CC)NC(=O)[C@H](CC(C)C)N(C)C(=O)C[C@@H](C(=O)N2CCOCC2)NC(=O)[C@H](C2CCCC2)N(C)C(=O)C2(CCC2)NC(=O)[C@@H]2CC(F)(F)CN2C(=O)[C@H](CCc2ccc(C(F)(F)F)c(Cl)c2)NC(=O)CN(C)C(=O)[C@@H]1Cc1ccc(C(F)(F)F)cc1` [PP0352] ([NMeL]I[Sar][Aze][NPrPhe(4-CF3)][Sar][hPhe(3-Cl-4-CF3)][Pro(4,4-F2)][Ac4c][NMeGly(cPent)]D-Morpholide; lactam N-11), in assay [1], the “NRAS/KRAS (ratio of KD for GDP-bound NRAS wild-type to KD for KRAS)” value is “C (A compound having a KD ratio of 0.1 or more and less than 3 is denoted as C)”. In addition, the “HRAS/KRAS (ratio of KD for GDP-bound HRAS wild-type to KD for KRAS)” value in assay [2] was “B (a compound having 3 or more and less than 10 is denoted as B)”.
Take `CCCN1C(=O)[C@@H]2CCN2C(=O)CN(C)C(=O)[C@H]([C@@H](C)CC)NC(=O)[C@H](CC(C)C)N(C)C(=O)C[C@@H](C(=O)N2CCOCC2)NC(=O)[C@H](C2CCCC2)N(C)C(=O)C2(CCCC2)NC(=O)[C@@H]2C[C@@H](OCC)CN2C(=O)[C@H](CCc2ccc(C(F)(F)F)c(Cl)c2)NC(=O)CN(C)C(=O)[C@@H]1Cc1ccc(C(F)(F)F)cc1` [PP0353] ([NMeL]I[Sar][Aze][NPrPhe(4-CF3)][Sar][hPhe(3-Cl-4-CF3)][Hyp](Et)[Ac5c][NMeGly(cPent)]D-Morpholide; lactam N-11): in assay [1], the “NRAS/KRAS (ratio of KD for GDP-bound NRAS wild-type to KD for KRAS)” value is “C (A compound having a KD ratio of 0.1 or more and less than 3 is denoted as C)”. Further, the “HRAS/KRAS (ratio of KD for GDP-bound HRAS wild-type to KD for KRAS)” value in assay [2] is “B (a compound having 3 or more and less than 10 is denoted as B)”.
With `CCCN1C(=O)[C@@H]2CCN2C(=O)CN(C)C(=O)[C@H]([C@@H](C)CC)NC(=O)[C@H](CC(C)C)N(C)C(=O)C[C@@H](C(=O)N2CCOCC2)NC(=O)[C@H](C2CCCC2)N(C)C(=O)C2(CCC2)NC(=O)[C@@H]2C[C@@H](OCC)CN2C(=O)[C@H](CCc2ccc(C(F)(F)F)c(Cl)c2)NC(=O)CN(C)C(=O)[C@@H]1Cc1ccc(C(F)(F)F)cc1` [PP0354] ([NMeL]I[Sar][Aze][NPrPhe(4-CF3)][Sar][hPhe(3-Cl-4-CF3)][Hyp](Et)[Ac4c][NMeGly(cPent)]D-Morpholide; lactam N-11), the “NRAS/KRAS (ratio of KD for GDP-bound NRAS wild-type to KD for KRAS)” value in assay [1] is “C (A compound having a KD ratio of 0.1 or more and less than 3 is denoted as C)”. Further, the “HRAS/KRAS (ratio of KD for GDP-bound HRAS wild-type to KD for KRAS)” value in assay [2] was “B (a compound having 3 or more and less than 10 is denoted as B)”.
Turning to `CCCN1C(=O)CN(C)C(=O)CN(C)C(=O)[C@H]([C@@H](C)CC)NC(=O)[C@H](CC(C)C)N(C)C(=O)C[C@@H](C(=O)N(C)C)NC(=O)[C@H](C2CCCC2)N(C)C(=O)C2(CCCC2)NC(=O)[C@@H]2CCCN2C(=O)[C@H](CCc2ccc(C(F)(F)F)c(Cl)c2)NC(=O)CN(C)C(=O)[C@@H]1Cc1ccc(C(F)(F)F)cc1` [PP0355] ([NMeL]I[Sar][Sar][NPrPhe(4-CF3)][Sar][hPhe(3-Cl-4-CF3)]P[Ac5c][NMeGly(cPent)]D-NMe2; lactam N-11), the “NRAS/KRAS (ratio of KD for GDP-bound NRAS wild-type to KD for KRAS)” value in assay [1] was “B (a compound having 3 or more and less than 10 is denoted as B)”. Also, the “HRAS/KRAS (ratio of KD for GDP-bound HRAS wild-type to KD for KRAS)” value in assay [2] is “B (a compound having 3 or more and less than 10 is denoted as B)”.
